Starred links: 1 amine or outer side, 2 acyl side, 3 side chain; linkers in the order of their positions; H or OH if unused. Non-standard residues stand in square brackets, D forms with d. Groups on a side chain read outwards from the residue. *: point of attachment. C18 diacid = O=C(O)CCCCCCCCCCCCCCCCC(=O)*; αMePhe(2-F) = C[C@](N)(Cc1ccccc1F)C(=O)O; γGlu = O=C(O)[C@H](CCC(=O)[*:2])N[*:1]; αMe4Pal = C[C@](N)(Cc1ccncc1)C(=O)O; αMeY = C[C@](N)(Cc1ccc(O)cc1)C(=O)O; 4Pal = N[C@@H](Cc1ccncc1)C(=O)O; αMeL = CC(C)C[C@](C)(N)C(=O)O; Orn = NCCC[C@H](N)C(=O)O; AEEA = NCCOCCOCC(=O)O; Aib = CC(C)(N)C(=O)O

Holding throughout (type): cell-based
The target in one test is human GcgR (Homo sapiens, UniProt P47871). Description: Functional cAMP activity in the presence of 1% HSA. Conditions: read-out: cAMP Rel EC50, hGcgR.
Test [1] has as its target T1, hGLP-1R (Homo sapiens, UniProt P43220). Description: Functional cAMP activation in the presence of 0.1% casein (no HSA). Conditions: read-out: Relative cAMP EC50, hGLP-1R.
Another test has as its target hGcgR (Homo sapiens, UniProt P47871). The description is as above. The note with it: read-out: Relative cAMP EC50, hGcgR.
Test [2] concerns the target T1, hGLP-1R. Put plainly: Functional cAMP activity in the presence of 1% HSA. The note with it: read-out: cAMP Rel EC50, hGLP-1R.
The target of test [3] is T2, hGIPR (Homo sapiens, UniProt P48546).
T2 sequence (P48546 22-466): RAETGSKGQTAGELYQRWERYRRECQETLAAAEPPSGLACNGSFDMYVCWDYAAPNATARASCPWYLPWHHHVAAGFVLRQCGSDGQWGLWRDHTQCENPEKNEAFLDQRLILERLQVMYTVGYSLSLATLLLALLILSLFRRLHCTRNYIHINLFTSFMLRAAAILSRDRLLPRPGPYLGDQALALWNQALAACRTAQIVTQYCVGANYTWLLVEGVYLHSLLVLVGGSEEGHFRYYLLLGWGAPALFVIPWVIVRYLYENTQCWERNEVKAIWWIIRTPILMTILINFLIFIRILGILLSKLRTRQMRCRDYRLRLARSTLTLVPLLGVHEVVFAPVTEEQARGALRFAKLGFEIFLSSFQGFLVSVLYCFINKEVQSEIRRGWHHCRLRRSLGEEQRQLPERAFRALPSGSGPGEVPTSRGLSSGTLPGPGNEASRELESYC
Put plainly: Functional cAMP activity in the presence of 1% HSA. Conditions: read-out: cAMP Rel EC50, hGIPR.

Test [4] concerns the target T2, hGIPR. Put plainly: Functional cAMP activation in the presence of 0.1% casein (no HSA). The note with it: read-out: Relative cAMP EC50, hGIPR.
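Wherever Relative cAMP EC50, hGIPR is given: intracellular cAMP rise after 30 min at 37 °C read by HTRF against a standard curve, scaled between buffer alone (0%) and top control ligand concentration (100%), four-parameter fit.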
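Wherever Relative cAMP EC50, hGLP-1R is given: intracellular cAMP rise after 30 min at 37 °C read by HTRF, normalized between buffer only (0%) and maximal control ligand (100%), four-parameter variable-slope fit.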
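Wherever Relative cAMP EC50, hGcgR is given: intracellular cAMP rise after 30 min at 37 °C, read by HTRF against a cAMP standard curve, scaled from buffer only (0%) to maximal control ligand response (100%).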

T1 sequence (P43220 24-463): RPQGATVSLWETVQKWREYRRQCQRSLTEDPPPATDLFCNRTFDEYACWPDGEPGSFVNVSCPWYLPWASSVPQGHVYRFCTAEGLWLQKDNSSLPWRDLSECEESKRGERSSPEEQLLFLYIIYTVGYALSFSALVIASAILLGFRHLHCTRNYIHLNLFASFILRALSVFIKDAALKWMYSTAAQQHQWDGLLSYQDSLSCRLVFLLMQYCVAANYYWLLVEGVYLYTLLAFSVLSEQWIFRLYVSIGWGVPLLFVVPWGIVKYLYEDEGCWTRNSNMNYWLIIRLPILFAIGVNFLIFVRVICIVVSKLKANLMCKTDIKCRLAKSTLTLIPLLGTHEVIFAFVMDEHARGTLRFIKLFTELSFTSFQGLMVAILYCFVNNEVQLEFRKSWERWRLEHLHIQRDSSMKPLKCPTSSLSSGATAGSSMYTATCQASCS
hGcgR, sequence (P47871 26-477): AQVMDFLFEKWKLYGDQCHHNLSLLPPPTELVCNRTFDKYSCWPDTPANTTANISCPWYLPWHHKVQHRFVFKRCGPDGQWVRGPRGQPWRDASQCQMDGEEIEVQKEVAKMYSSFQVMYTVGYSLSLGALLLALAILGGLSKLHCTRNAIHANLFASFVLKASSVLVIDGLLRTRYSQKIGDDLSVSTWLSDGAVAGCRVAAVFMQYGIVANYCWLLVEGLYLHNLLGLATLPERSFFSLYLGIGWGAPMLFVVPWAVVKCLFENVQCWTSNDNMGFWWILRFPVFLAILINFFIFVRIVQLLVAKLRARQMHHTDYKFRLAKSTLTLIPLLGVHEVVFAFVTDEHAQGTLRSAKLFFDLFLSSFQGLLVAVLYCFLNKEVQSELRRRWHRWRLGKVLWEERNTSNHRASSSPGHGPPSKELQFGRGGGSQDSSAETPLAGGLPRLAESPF
human GcgR, sequence (P47871 26-477): as above

In general, EC50 refers to the concentration at which the effect is half-maximal. Regarding “H-Y[Aib]QGT[αMePhe(2-F)]TSD[4Pal]SI[αMeL]LD[Orn]K([AEEA-γGlu-C18 diacid])AQ[αMe4Pal][Orn]FI[dE][αMeY]LIEGGPSSGEPPPEGTGE-NH2 [Example 680]”, the EC50 on human GcgR turned out to be 256 nM; at hGLP-1R [1] it was 0.246 nM; on hGcgR, 2 nM; on hGLP-1R [2], 28.6 nM; on hGIPR [3] it was 1.04 nM; at hGIPR [4] it was 0.01 nM.

Consider “H-Y[Aib]QGT[αMePhe(2-F)]TSD[4Pal]SI[αMeL]LD[Orn]K([AEEA-γGlu-C18 diacid])AQ[αMe4Pal][Orn]FI[dE][αMeY]LIEGGPSSGEPPPESE-NH2 [Example 677]”, for which the EC50 on human GcgR came out at 190 nM; on hGLP-1R [1] it was 0.252 nM; on hGcgR it was 2.21 nM; at hGLP-1R [2] it was 20.8 nM; at hGIPR [3], 1.03 nM; on hGIPR [4], 0.0111 nM.

In the case of “H-Y[Aib]QGT[αMePhe(2-F)]TSD[4Pal]SI[αMeL]LD[Orn]K([AEEA-γGlu-C18 diacid])AQ[αMe4Pal][Orn]FI[dE][αMeY]LIEGGPSSGEPPPESEE-NH2 [Example 753]”, the EC50 on human GcgR was found to be 351 nM; on hGLP-1R [1], 0.271 nM; at hGcgR it was 2.7 nM; on hGLP-1R [2], 38.2 nM; on hGIPR [3], 1.86 nM; on hGIPR [4], 0.0127 nM.

Take “H-Y[Aib]QGT[αMePhe(2-F)]TSD[4Pal]SI[αMeL]LD[Orn]K([AEEA-γGlu-C18 diacid])AQ[αMe4Pal][Orn]FI[dE][αMeY]LIEGGPSSGEPPPETE-NH2 [Example 678]”: the EC50 on human GcgR worked out at 245 nM; at hGLP-1R [1], 0.251 nM; at hGcgR, 2.28 nM; on hGLP-1R [2] it was 22.1 nM; on hGIPR [3], 0.929 nM; on hGIPR [4], 0.0132 nM.

With “H-Y[Aib]QGT[αMePhe(2-F)]TSD[4Pal]SI[αMeL]LD[Orn]K([AEEA-γGlu-C18 diacid])AQ[αMe4Pal][Orn]FI[dE][αMeY]LIEGGPSSGEPPPSGS-NH2 [Example 706]”, the EC50 on human GcgR worked out at 240 nM; at hGLP-1R [1], 0.19 nM; at hGcgR it was 2.18 nM; at hGLP-1R [2] it was 23.7 nM; on hGIPR [3] it was 0.913 nM; on hGIPR [4] it was 0.00911 nM.

Regarding “H-Y[Aib]QGT[αMePhe(2-F)]TSD[4Pal]SI[αMeL]LD[Orn]K([γGlu-γGlu-C18 diacid])AQ[αMe4Pal]EFI[dE][αMeY]LAEGGPSSGAPPPSGS-NH2 [Example 646]”, the EC50 at human GcgR came to 1260 nM; at hGLP-1R [1] it was 2.58 nM; on hGcgR, 23.1 nM; at hGLP-1R [2] it was 90.5 nM; on hGIPR [3], 1.09 nM; at hGIPR [4], 0.0336 nM.

As to “H-Y[Aib]QGT[αMePhe(2-F)]TSD[4Pal]SI[αMeL]LD[Orn]K([γGlu-γGlu-C18 diacid])AQ[αMe4Pal]EFI[dE][αMeY]LIEGGPSSGAPPPSGE-NH2 [Example 616]”, the EC50 was found to be 734 nM at human GcgR; 0.29 nM at hGLP-1R [1]; 6.58 nM at hGcgR; 28.9 nM at hGLP-1R [2]; 0.467 nM at hGIPR [3]; 0.00727 nM on hGIPR [4].

“H-Y[Aib]QGT[αMePhe(2-F)]TSD[4Pal]SI[αMeL]LD[Orn]K([γGlu-γGlu-C18 diacid])AQ[αMe4Pal]EFI[dE][αMeY]LLEGGPSSGAPPPSGE-NH2 [Example 617]”: the EC50 worked out at 547 nM at human GcgR; 0.534 nM at hGLP-1R [1]; 4.56 nM on hGcgR; 67.4 nM at hGLP-1R [2]; 0.643 nM on hGIPR [3]; 0.00849 nM on hGIPR [4].

For the substance “H-Y[Aib]QGT[αMePhe(2-F)]TSD[4Pal]SI[αMeL]LD[Orn]K([γGlu-γGlu-C18 diacid])AQ[αMe4Pal]EFI[dE][αMeY]LQEGGPSSGAPPPSGS-NH2 [Example 647]”, the 50% effective concentration (EC50) on human GcgR was determined as 1210 nM; on hGLP-1R [1], 0.872 nM; at hGcgR it was 18.8 nM; at hGLP-1R [2] it was 36.1 nM; at hGIPR [3], 0.691 nM; at hGIPR [4], 0.0177 nM.

As for “H-Y[Aib]QGT[αMePhe(2-F)]TSD[4Pal]SI[αMeL]LD[Orn]K([γGlu-γGlu-C18 diacid])AQ[αMe4Pal]EFI[dE][αMeY]LQEGGPSSGEPPPSGS-NH2 [Example 649]”, the EC50 at human GcgR came out at 669 nM; on hGLP-1R [1], 1.35 nM; at hGcgR, 21.2 nM; at hGLP-1R [2], 62.9 nM; on hGIPR [3], 0.76 nM; on hGIPR [4], 0.0221 nM.

Turning to “H-Y[Aib]QGT[αMePhe(2-F)]TSD[4Pal]SI[αMeL]LD[Orn]K([γGlu-γGlu-C18 diacid])AQ[αMe4Pal][Orn]FI[dE]YLIEGGPSSGEPPPEGT-NH2 [Example 541]”, the EC50 on human GcgR was found to be 520 nM; at hGLP-1R [1], 0.74 nM; at hGcgR, 4.26 nM; on hGLP-1R [2], 38.7 nM; at hGIPR [3] it was 1.28 nM; at hGIPR [4], 0.0213 nM.

Turning to “H-Y[Aib]QGT[αMePhe(2-F)]TSD[4Pal]SI[αMeL]LD[Orn]K([γGlu-γGlu-C18 diacid])AQ[αMe4Pal][Orn]FI[dE][αMeY]LIEGGPSSGEPPPEAE-NH2 [Example 684]”, the EC50 on human GcgR turned out to be 143 nM; on hGLP-1R [1] it was 0.28 nM; at hGcgR it was 2.16 nM; at hGLP-1R [2] it was 14.2 nM; on hGIPR [3], 0.436 nM; at hGIPR [4] it was 0.00843 nM.

For “H-Y[Aib]QGT[αMePhe(2-F)]TSD[4Pal]SI[αMeL]LD[Orn]K([γGlu-γGlu-C18 diacid])AQ[αMe4Pal][Orn]FI[dE][αMeY]LIEGGPSSGEPPPEEG-NH2 [Example 681]”, the EC50 at human GcgR worked out at 104 nM; at hGLP-1R [1] it was 0.257 nM; at hGcgR, 1.35 nM; at hGLP-1R [2] it was 14.2 nM; on hGIPR [3], 0.395 nM; at hGIPR [4], 0.00663 nM.

As for “H-Y[Aib]QGT[αMePhe(2-F)]TSD[4Pal]SI[αMeL]LD[Orn]K([γGlu-γGlu-C18 diacid])AQ[αMe4Pal][Orn]FI[dE][αMeY]LIEGGPSSGEPPPEGE-NH2 [Example 683]”, the EC50 on human GcgR turned out to be 137 nM; at hGLP-1R [1] it was 0.214 nM; at hGcgR it was 1.57 nM; on hGLP-1R [2] it was 14.3 nM; at hGIPR [3], 0.492 nM; at hGIPR [4] it was 0.00798 nM.

Take “H-Y[Aib]QGT[αMePhe(2-F)]TSD[4Pal]SI[αMeL]LD[Orn]K([γGlu-γGlu-C18 diacid])AQ[αMe4Pal][Orn]FI[dE][αMeY]LIEGGPSSGEPPPEGTE-NH2 [Example 687]”: the EC50 at human GcgR was 157 nM; at hGLP-1R [1], 0.277 nM; at hGcgR, 2.41 nM; on hGLP-1R [2], 21.3 nM; on hGIPR [3], 0.595 nM; at hGIPR [4] it was 0.00903 nM.

“H-Y[Aib]QGT[αMePhe(2-F)]TSD[4Pal]SI[αMeL]LD[Orn]K([γGlu-γGlu-C18 diacid])AQ[αMe4Pal][Orn]FI[dE][αMeY]LIEGGPSSGEPPPEGTGE-NH2 [Example 688]”: the EC50 was 182 nM at human GcgR; 0.304 nM on hGLP-1R [1]; 2.06 nM at hGcgR; 19.5 nM on hGLP-1R [2]; 0.61 nM at hGIPR [3]; 0.00881 nM on hGIPR [4].

As for “H-Y[Aib]QGT[αMePhe(2-F)]TSD[4Pal]SI[αMeL]LD[Orn]K([γGlu-γGlu-C18 diacid])AQ[αMe4Pal][Orn]FI[dE][αMeY]LIEGGPSSGEPPPESE-NH2 [Example 685]”, the EC50 at human GcgR came to 160 nM; at hGLP-1R [1], 0.308 nM; on hGcgR, 2.18 nM; at hGLP-1R [2] it was 18.7 nM; at hGIPR [3] it was 0.497 nM; on hGIPR [4], 0.00809 nM.

The record behind these values is patent publication US20240270821A1, “GIP/GLP1/GCG TRI-RECEPTOR AGONISTS AND USES THEREOF” (priority 2023, published 2024).
